Patent US10851064B2, “ACSS2 inhibitors and methods of use thereof” (METABOMED LTD., priority 2017, dated 2020)

Target: ACSS2 (Homo sapiens, UniProt Q9NR19)
Experiment: biochemical
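Note: Cell-free human ACSS2 enzyme reaction with acetate, CoA and ATP, 90 min at 37 C, coupled to pyrophosphatase, phosphate release detected by Biomol Green absorbance at 620 nm.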

ACSS2, sequence (Q9NR19 whole entry): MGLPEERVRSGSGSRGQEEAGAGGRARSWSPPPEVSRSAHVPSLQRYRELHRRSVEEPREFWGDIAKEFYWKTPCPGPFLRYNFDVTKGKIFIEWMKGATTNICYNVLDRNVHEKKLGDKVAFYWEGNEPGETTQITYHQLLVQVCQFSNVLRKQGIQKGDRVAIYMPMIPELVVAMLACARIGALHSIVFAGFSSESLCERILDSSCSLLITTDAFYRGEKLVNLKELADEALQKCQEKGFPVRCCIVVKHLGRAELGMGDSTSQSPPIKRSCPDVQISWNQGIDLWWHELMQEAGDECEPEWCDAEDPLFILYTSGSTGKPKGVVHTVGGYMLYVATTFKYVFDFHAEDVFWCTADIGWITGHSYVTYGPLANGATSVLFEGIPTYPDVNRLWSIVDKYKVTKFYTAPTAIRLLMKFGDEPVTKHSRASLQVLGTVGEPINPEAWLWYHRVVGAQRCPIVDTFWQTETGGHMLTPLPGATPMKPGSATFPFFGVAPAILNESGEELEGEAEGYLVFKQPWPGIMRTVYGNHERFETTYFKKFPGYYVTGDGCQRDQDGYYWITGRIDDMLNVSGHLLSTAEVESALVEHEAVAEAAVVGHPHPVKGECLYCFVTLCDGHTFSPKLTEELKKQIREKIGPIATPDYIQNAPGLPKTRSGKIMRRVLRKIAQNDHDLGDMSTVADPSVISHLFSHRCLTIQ
Procedure: ACSS2 Cell-Free Activity Assay (Cell-Free IC50)
The assay is based on a coupling reaction with Pyrophosphatase: ACSS2 is converting ATP+CoA+Acetate=>AMP+pyrophosphate+Acetyl-CoA (Ac-CoA). Pyrophosphatase converts pyrophosphate, a product of the ACSS2 reaction, to phosphate which can be detected by measuring the absorbance at 620 nm after incubation with the Biomol green reagent (Enzo life Science, BML-AK111).
Cell-free IC50 Determination:
At the end of the reaction, Biomol Green was added for 30 minutes at RT and the activity was measured by reading the absorbance at 620 nm.

SMILES | IC50 [nM]
CC1=NN(c2ccccc2)C(=O)C1C(=O)Nc1cccc(-c2ccncc2)c1 (centres unmarked) [compound 104, 3-methyl-5-oxo-1-phenyl-N-(3-(pyridin-4-yl)phenyl)-4,5-dihydro-1H-pyrazole-4-carboxamide] | 1000 to 100000
CCCOc1ccc(N2N=C(C)C(C(=O)Nc3cccc(CC)c3)C2=O)cc1 (centres unmarked) [compound 158, N-(3-ethylphenyl)-3-methyl-5-oxo-1-(4-propoxyphenyl)-4,5-dihydro-1H-pyrazole-4-carboxamide] | 6 to 100
CC1=NN(c2ccc(C3CC3)cc2)C(=O)C1C(=O)Nc1cccc(C(C)(F)F)c1 (centres unmarked) [compound 457] | 0.01 to 6
CCc1cccc(NC(=O)C2C(=O)N(c3ccccc3)N=C2c2ccccn2)c1 (centres unmarked) [compound 156, N-(3-ethylphenyl)-5-oxo-1-phenyl-3-(pyridin-2-yl)-4,5-dihydro-1H-pyrazole-4-carboxamide] | 1000 to 100000
CCc1csc(NC(=O)C2C(=O)N(c3ccccc3)N=C2C)c1 (centres unmarked) [compound 285] | 100 to 1000
CC1=NN(c2ccccc2)C(=O)C1C(=O)Nc1cccc(-c2nnc[nH]2)c1 (centres unmarked) [compound 174] | 100 to 1000
CC1=NN(c2ccccc2)C(=O)C1C(=O)NC(C)C (centres unmarked) [compound 200, N-isopropyl-3-methyl-5-oxo-1-phenyl-4,5-dihydro-1H-pyrazole-4-carboxamide] | > 100000
CCC1=NN(c2ccccc2)C(=O)C1C(=O)Nc1cccc(CC)c1 (centres unmarked) [compound 136, 3-ethyl-N-(3-ethylphenyl)-5-oxo-1-phenyl-4,5-dihydro-1H-pyrazole-4-carboxamide] | 1000 to 100000
CCc1cccc(NC(=O)C2C(=O)N(c3ccncc3)N=C2C)c1 (centres unmarked) [compound 125, N-(3-ethylphenyl)-3-methyl-5-oxo-1-(pyridin-4-yl)-4,5-dihydro-1H-pyrazole-4-carboxamide] | 100 to 1000
CC1=NN(c2ccccc2)C(=O)C1C(=O)NC1CCNCC1 (centres unmarked) [compound 121, 3-methyl-5-oxo-1-phenyl-N-(4-piperidyl)-4H-pyrazole-4-carboxamide] | 1000 to 100000
CC1=NN(c2ccc(OC(F)F)c(-c3noc(C)n3)c2)C(=O)C1C(=O)Nc1cccc(C(C)(F)F)c1 (centres unmarked) [compound 407] | 0.01 to 6
CC1=NN(c2ccccc2)C(=O)C1C(=O)Nc1cccc(CN(C)C)c1 (centres unmarked) [compound 131, N-(3-((dimethylamino)methyl)phenyl)-3-methyl-5-oxo-1-phenyl-4,5-dihydro-1H-pyrazole-4-carboxamide] | 1000 to 100000
CCc1cccc(NC(=O)C2C(=O)N(c3ccccc3)N=C2c2ccccc2)c1 (centres unmarked) [compound 126, N-(3-ethylphenyl)-5-oxo-1,3-diphenyl-4,5-dihydro-1H-pyrazole-4-carboxamide] | 1000 to 100000
CC1=NN(c2ccc(S(=O)(=O)N(C)C)cc2)C(=O)C1C(=O)Nc1cccc(-c2ccco2)c1 (centres unmarked) [compound 160, 1-(4-(N,N-dimethylsulfamoyl)phenyl)-N-(3-(furan-2-yl)phenyl)-3-methyl-5-oxo-4,5-dihydro-1H-pyrazole-4-carboxamide] | 6 to 100
N#Cc1ccc(OCCNC(=O)c2cccc(C(O)CO)c2)cc1 (centres unmarked) [compound 179] | 1000 to 100000
CC1=NN(c2ccc(OC(F)F)cc2)C(=O)C1C(=O)N(C)c1cccc(Cl)c1 (centres unmarked) [compound 395] | 100 to 1000
CC1=NN(c2ccc(OC(F)F)cc2)C(=O)C1C(=O)Nc1cccc(C(C)(F)F)c1 (centres unmarked) [compound 418] | 100 to 1000
COc1cccc(NC(=O)C2C(=O)N(c3ccccc3)N=C2C)c1 (centres unmarked) [compound 211, N-(3-methoxyphenyl)-3-methyl-5-oxo-1-phenyl-4,5-dihydro-1H-pyrazole-4-carboxamide] | 6 to 100
COc1ccc(N2N=C(C)C(C(=O)Nc3cccc(C(C)(F)F)c3)C2=O)cc1-c1cc[n+]([O-])cc1 (centres unmarked) [compound 345] | 100 to 1000
CC1=NN(c2ccccc2)C(=O)C1C(=O)Nc1cccc(Cl)c1 (centres unmarked) [compound 210, N-(3-chlorophenyl)-3-methyl-5-oxo-1-phenyl-4,5-dihydro-1H-pyrazole-4-carboxamide] | 6 to 100
CC1=NN(c2cc(Cc3ccccc3OCc3ccccc3)cc(-c3cccnc3)c2)C(=O)C1C(=O)Nc1cccc(C(C)(F)F)c1 (centres unmarked) [compound 365] | 6 to 100

SMILES | IC50 [nM]
CC1=NN(c2cccc(C#CCNC(=O)CCCC(=O)Nc3ccc4c(c3)C(=O)N(C3CCC(=O)NC3=O)C4=O)c2)C(=O)C1C(=O)Nc1cccc(C(C)(F)F)c1 (centres unmarked) [compound 382] | 0.01 to 6
COc1ccc(N2N=C(C)C(C(=O)NCc3ccccc3)C2=O)cc1 (centres unmarked) [compound 358] | 100 to 1000
CC1=NN(c2cc(Cc3ccccc3Cl)cc(-c3cccnc3)c2)C(=O)C1C(=O)Nc1cccc(C(C)(F)F)c1 (centres unmarked) [compound 406] | 0.01 to 6
CC1=NN(c2ccc(OC(F)F)c(-c3cncnc3)c2)C(=O)C1C(=O)Nc1cccc(C(C)(F)F)c1 (centres unmarked) [compound 449] | 0.01 to 6
CC1=NN(c2ccccc2)C(=O)C1C(=O)NC1CCOC1 (centres unmarked) [compound 106, 3-methyl-5-oxo-1-phenyl-N-(tetrahydrofuran-3-yl)-4,5-dihydro-1H-pyrazole-4-carboxamide] | > 100000
CCCc1cc(-c2ccccc2)cc(N2N=C(C)C(C(=O)Nc3cccc(C(C)(F)F)c3)C2=O)c1 (centres unmarked) [compound 400] | 6 to 100
CC1=NN(c2ccccc2)C(=O)C1C(=O)NC1CCOCC1 (centres unmarked) [compound 112, 3-methyl-5-oxo-1-phenyl-N-(tetrahydro-2H-pyran-4-yl)-4,5-dihydro-1H-pyrazole-4-carboxamide] | 1000 to 100000
CC1=NN(c2ccccc2)C(=O)C1C(=O)Nc1cccc(-c2ccon2)c1 (centres unmarked) [compound 239] | 1000 to 100000
COc1ccc(N2N=C(C)C(C(=O)Nc3cccc(C(C)(F)F)c3)C2=O)cc1-c1ncc(C)o1 (centres unmarked) [compound 352] | 0.01 to 6
COc1ccc(N2N=C(C)C(C(=O)Nc3cccc(-c4ncco4)c3)C2=O)cc1 (centres unmarked) [compound 256] | 6 to 100
CC1=NN(c2ccc(OC3CCCCC3)cc2)C(=O)C1C(=O)Nc1cccc(C(C)(F)F)c1 (centres unmarked) [compound 443] | 0.01 to 6
CC1=NN(c2ccncc2)C(=O)C1C(=O)Nc1ccccc1 (centres unmarked) [compound 193, 3-methyl-5-oxo-N-phenyl-1-(pyridin-4-yl)-4,5-dihydro-1H-pyrazole-4-carboxamide] | > 100000
CC1=NN(c2cccnc2)C(=O)C1C(=O)Nc1ccccc1 (centres unmarked) [compound 195, 3-methyl-5-oxo-N-phenyl-1-(pyridin-3-yl)-4,5-dihydro-1H-pyrazole-4-carboxamide] | > 100000
CC(O)(c1ccccc1)c1cccc(NC(=O)C2C=NN(c3ccc(OC(F)F)cc3)C2=O)c1 (centres unmarked) [compound 416] | 6 to 100
CCC(F)(F)c1cccc(NC(=O)C2C(=O)N(c3ccc(OC)c(-c4ccccc4)c3)N=C2C)c1 (centres unmarked) [compound 368] | 0.01 to 6
CC1=NN(c2ccccc2)C(=O)C1C(=O)Nc1cccc(CC(C)C)c1 (centres unmarked) [compound 147, N-(3-isobutylphenyl)-3-methyl-5-oxo-1-phenyl-4,5-dihydro-1H-pyrazole-4-carboxamide] | 100 to 1000
CC1=NN(c2ccc(OC3COC3)cc2)C(=O)C1C(=O)Nc1cccc(C(C)(F)F)c1 (centres unmarked) [compound 439] | 0.01 to 6
CC1=NN(c2ccccc2)C(=O)C1C(=O)Nc1nccn1C (centres unmarked) [compound 268] | 1000 to 100000
COc1ccc(N2N=C(C)C(C(=O)Nc3cccc(C(C)(F)F)c3)C2=O)cc1-c1nnc(C)o1 (centres unmarked) [compound 430] | 0.01 to 6
COc1ccc(N2N=C(C)C(C(=O)Nc3cccc(C(C)(F)F)c3)C2=O)c(F)c1 (centres unmarked) [compound 451] | 0.01 to 6

Next, values leading:

IC50 [nM] | SMILES
0.01 to 6 | CCC(F)(F)c1cccc(NC(=O)C2C(=O)N(c3ccc4ccn(C(C)C)c4c3)N=C2C)c1 (centres unmarked) [compound 360]
1000 to 100000 | CC(=O)c1ccc(NC(=O)C2C(=O)N(c3ccccc3)N=C2C)cc1 (centres unmarked) [compound 203, N-(4-acetylphenyl)-3-methyl-5-oxo-1-phenyl-4,5-dihydro-1H-pyrazole-4-carboxamide]
100 to 1000 | CC1=NN(c2ccccc2)C(=O)C1C(=O)Nc1cccc(-c2ccccc2)c1 (centres unmarked) [compound 102, N-([1,1′-biphenyl]-3-yl)-3-methyl-5-oxo-1-phenyl-4,5-dihydro-1H-pyrazole-4-carboxamide]
6 to 100 | CC(=O)NS(=O)(=O)c1cccc(N2N=C(C)C(C(=O)Nc3cccc(C(C)(F)F)c3)C2=O)c1 (centres unmarked) [compound 293]
100 to 1000 | CCc1cc(NC(=O)C2C(=O)N(c3ccccc3)N=C2C)cs1 (centres unmarked) [compound 284]
6 to 100 | CC1=NN(c2ccncc2)C(=O)C1C(=O)Nc1cccc(-c2ccco2)c1 (centres unmarked) [compound 240]
0.01 to 6 | CC1=NN(c2ccc3ccn(C)c3c2)C(=O)C1C(=O)Nc1cccc(C(C)(F)F)c1 (centres unmarked) [compound 366]
0.01 to 6 | CC1=NN(c2ccc(OC(F)F)c(-c3cccnc3)c2)C(=O)C1C(=O)Nc1cccc(C(C)(F)F)c1 (centres unmarked) [compound 455]
0.01 to 6 | CC1=NN(c2cc(C)cc(-c3ncco3)c2)C(=O)C1C(=O)Nc1cccc(C(C)(F)F)c1 (centres unmarked) [compound 420]
100 to 1000 | CCc1ccc(NC(=O)C2C(=O)N(c3ccccc3)N=C2C)s1 (centres unmarked) [compound 260]
100 to 1000 | CCc1ccsc1NC(=O)C1C(=O)N(c2ccccc2)N=C1C (centres unmarked) [compound 288]
0.01 to 6 | CC1=NN(c2cc(Br)cc(Cc3ccccc3Cl)c2)C(=O)C1C(=O)Nc1cccc(C(C)(F)F)c1 (centres unmarked) [compound 412]
0.01 to 6 | COc1ccc(N2N=C(C)C(C(=O)Nc3cccc(C(C)(F)F)c3)C2=O)cc1-c1cncnc1 (centres unmarked) [compound 442]
0.01 to 6 | CC1=NN(c2ccc(OC(F)F)c(-c3nnc(C)[nH]3)c2)C(=O)C1C(=O)Nc1cccc(C(C)(F)F)c1 (centres unmarked) [compound 371]
100 to 1000 | CCc1cccc(NC(=O)C2C(=O)N(c3ccc([N+](=O)[O-])cc3)N=C2C)c1 (centres unmarked) [compound 153, N-(3-ethylphenyl)-3-methyl-1-(4-nitrophenyl)-5-oxo-4,5-dihydro-1H-pyrazole-4-carboxamide]
> 100000 | N#Cc1ccc(OCCNC(=O)C(N)c2ccccc2)cc1 (centres unmarked) [compound 180]
100 to 1000 | CC1=NN(c2ccccc2)C(=O)C1C(=O)Nc1cccc(C(C)(C)C)c1 (centres unmarked) [compound 115, N-(3-(tert-butyl)phenyl)-3-methyl-5-oxo-1-phenyl-4,5-dihydro-1H-pyrazole-4-carboxamide]
1000 to 100000 | CC1=NN(c2ccccc2)C(=O)C1C(=O)Nc1ccncc1 (centres unmarked) [compound 216, 3-methyl-5-oxo-1-phenyl-N-(pyridin-4-yl)-4,5-dihydro-1H-pyrazole-4-carboxamide]
